Earlier results in PMC9516332 (Frontiers in Oncology, 2022).
Read-outs that look alike come from different tables or passages of the source.

Assays:
[1] = target: T1, panel of 255 wild-type kinases (Homo sapiens, UniProt O00141); settings: kinase SGK, 1 µmol/L single concentration, cited from earlier work
T1 sequence (O00141 1-431): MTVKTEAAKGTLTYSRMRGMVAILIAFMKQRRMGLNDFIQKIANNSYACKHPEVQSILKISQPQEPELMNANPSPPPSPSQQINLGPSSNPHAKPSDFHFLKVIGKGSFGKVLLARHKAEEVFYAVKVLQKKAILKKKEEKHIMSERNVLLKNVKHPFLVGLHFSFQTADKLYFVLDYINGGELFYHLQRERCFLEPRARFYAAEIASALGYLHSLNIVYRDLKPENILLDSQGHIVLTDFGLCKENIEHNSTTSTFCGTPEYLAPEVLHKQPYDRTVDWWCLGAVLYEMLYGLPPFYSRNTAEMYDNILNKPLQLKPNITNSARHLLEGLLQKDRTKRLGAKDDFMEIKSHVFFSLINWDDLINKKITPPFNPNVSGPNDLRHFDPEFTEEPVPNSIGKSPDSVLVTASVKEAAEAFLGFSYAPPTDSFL

[2] = target: T2, panel of 255 wild-type kinases (Homo sapiens, UniProt O60285); settings: NuaK1, 1 µmol/L single concentration, cited from earlier work
T2 sequence (O60285 1-661): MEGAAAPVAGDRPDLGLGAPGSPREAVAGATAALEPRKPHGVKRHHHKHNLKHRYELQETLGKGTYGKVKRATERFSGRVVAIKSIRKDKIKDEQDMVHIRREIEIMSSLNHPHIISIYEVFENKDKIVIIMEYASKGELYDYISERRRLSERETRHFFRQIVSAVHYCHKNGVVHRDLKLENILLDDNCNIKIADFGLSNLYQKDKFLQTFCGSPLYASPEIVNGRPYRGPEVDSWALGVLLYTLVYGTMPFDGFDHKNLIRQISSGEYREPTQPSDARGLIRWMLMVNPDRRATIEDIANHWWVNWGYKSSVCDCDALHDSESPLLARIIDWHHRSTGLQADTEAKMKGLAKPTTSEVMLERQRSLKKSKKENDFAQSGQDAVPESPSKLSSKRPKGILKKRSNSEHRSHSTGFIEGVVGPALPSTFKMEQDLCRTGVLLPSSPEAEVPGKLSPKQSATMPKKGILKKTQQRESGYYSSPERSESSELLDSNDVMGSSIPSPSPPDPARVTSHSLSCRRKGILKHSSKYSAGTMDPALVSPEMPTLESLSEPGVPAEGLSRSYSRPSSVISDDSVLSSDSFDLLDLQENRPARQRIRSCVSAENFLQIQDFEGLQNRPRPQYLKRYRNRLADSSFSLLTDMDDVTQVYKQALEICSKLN

[3] = target: panel of 255 wild-type kinases (Homo sapiens, UniProt P06239); settings: kinase LCK, 1 µmol/L single concentration, cited from earlier work
[4] = target: panel of 255 wild-type kinases (Homo sapiens, UniProt P09769); settings: kinase FGR, 1 µmol/L single concentration, cited from earlier work
[5] = target: panel of 255 wild-type kinases (Homo sapiens, UniProt P16234); settings: kinase PDGFRα, 1 µmol/L single concentration, cited from earlier work
[6] = target: panel of 255 wild-type kinases (Homo sapiens, UniProt Q16620); settings: kinase TRKB, 1 µmol/L single concentration, cited from earlier work
[7] = target: panel of 255 wild-type kinases (Homo sapiens, UniProt Q8N568); settings: kinase DCAMKL2, 1 µmol/L single concentration, cited from earlier work
[8] = target: T3, panel of 255 wild-type kinases (Homo sapiens, UniProt Q96PF2); settings: kinase TSSK2, 1 µmol/L single concentration, cited from earlier work
T3 sequence (Q96PF2 1-358): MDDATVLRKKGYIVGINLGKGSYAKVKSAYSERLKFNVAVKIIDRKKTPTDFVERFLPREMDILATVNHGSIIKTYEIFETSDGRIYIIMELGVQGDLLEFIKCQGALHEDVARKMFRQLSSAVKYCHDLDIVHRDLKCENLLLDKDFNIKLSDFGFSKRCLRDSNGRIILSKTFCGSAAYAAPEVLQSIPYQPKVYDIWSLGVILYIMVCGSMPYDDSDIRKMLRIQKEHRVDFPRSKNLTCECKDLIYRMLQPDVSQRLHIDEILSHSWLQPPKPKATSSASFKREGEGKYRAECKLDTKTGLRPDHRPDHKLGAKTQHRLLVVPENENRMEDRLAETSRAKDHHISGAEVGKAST

[9] = target: panel of 255 wild-type kinases (Homo sapiens, UniProt Q9HC98); settings: NEK6, 1 µmol/L single concentration, cited from earlier work
[10] = target: panel of 255 wild-type kinases (Homo sapiens, UniProt Q9P1W9); settings: kinase PIM2, 1 µmol/L single concentration, cited from earlier work
[11] = target: panel of 255 wild-type kinases (Homo sapiens, UniProt Q9P289); settings: MST4, 1 µmol/L single concentration, cited from earlier work
[12] = target: panel of 255 wild-type kinases (Homo sapiens, UniProt Q9UBS0); settings: p70S6Kβ, 1 µmol/L single concentration, cited from earlier work
[13] = target: panel of 255 wild-type kinases (Homo sapiens, UniProt Q9Y5S2); settings: MRCKβ, 1 µmol/L single concentration, cited from earlier work
[14] = ref DOI: 10.1158/1535-7163.MCT-18-0877
[15] = ref DOI: 10.1371/journal.pone.0092146

SMILES: CC#CC(=O)N1CCC[C@H]1c1nc(-c2ccc(C(=O)Nc3ccccn3)cc2)c2c(N)nccn12 [acalabrutinib]
- %-inhibition at 1 µmol/L, SGK [1, 14]: -5%
- %-inhibition, NuaK1 [2, 14]: -3.51%
- %-inhibition at 1 µmol/L, LCK [3, 14]: 7%
- %-inhibition at 1 µmol/L, FGR [4, 14]: 3%
- %-inhibition at 1 µmol/L, PDGFRα [5, 14]: 1.38%
- %-inhibition at 1 µmol/L, TRKB [6, 14]: 14%
- %-inhibition at 1 µmol/L, DCAMKL2 [7, 14]: 4.63%
- %-inhibition at 1 µmol/L, TSSK2 [8, 14]: -3%
- %-inhibition, NEK6 [9, 14]: -5.54%
- %-inhibition at 1 µmol/L, PIM2 [10, 14]: -17%
- %-inhibition, MST4 [11, 14]: -6.42%
- %-inhibition, p70S6Kβ [12, 14]: -14%
- %-inhibition, MRCKβ [13, 14]: -16%

SMILES: C=CC(=O)Nc1cc(Nc2nccc(-c3cn(C)c4ccccc34)n2)c(OC)cc1N(C)CCN(C)C [osimertinib]
- %-inhibition at 1 µmol/L, SGK [1, 14]: -11%
- %-inhibition, NuaK1 [2, 14]: 48%
- %-inhibition at 1 µmol/L, LCK [3, 14]: 3.62%
- %-inhibition at 1 µmol/L, FGR [4, 14]: 5.61%
- %-inhibition at 1 µmol/L, PDGFRα [5, 14]: 69%
- %-inhibition at 1 µmol/L, TRKB [6, 14]: -0.7%
- %-inhibition at 1 µmol/L, DCAMKL2 [7, 14]: -7%
- %-inhibition at 1 µmol/L, TSSK2 [8, 14]: -0.257%
- %-inhibition, NEK6 [9, 14]: 0.319%
- %-inhibition at 1 µmol/L, PIM2 [10, 14]: -5.45%
- %-inhibition, MST4 [11, 14]: 1.61%
- %-inhibition, p70S6Kβ [12, 14]: 20%
- %-inhibition, MRCKβ [13, 14]: 12%

SMILES: CO[C@@H]1[C@H](N(C)C(=O)c2ccccc2)C[C@H]2O[C@]1(C)n1c3ccccc3c3c4c(c5c6ccccc6n2c5c31)C(=O)NC4 [midostaurin]
- %-inhibition at 1 µmol/L, SGK [1, 14]: 31%
- %-inhibition, NuaK1 [2, 14]: 101%
- %-inhibition at 1 µmol/L, LCK [3, 14]: 91%
- %-inhibition at 1 µmol/L, FGR [4, 14]: 93%
- %-inhibition at 1 µmol/L, PDGFRα [5, 14]: 99%
- %-inhibition at 1 µmol/L, TRKB [6, 14]: 99%
- %-inhibition at 1 µmol/L, DCAMKL2 [7, 14]: 8%
- %-inhibition at 1 µmol/L, TSSK2 [8, 14]: 24%
- %-inhibition, NEK6 [9, 14]: -8%
- %-inhibition at 1 µmol/L, PIM2 [10, 14]: -9%
- %-inhibition, MST4 [11, 14]: 52%
- %-inhibition, p70S6Kβ [12, 14]: 69%
- %-inhibition, MRCKβ [13, 14]: 18%

SMILES: C=CC(=O)N1CCC[C@@H](n2nc(-c3ccc(Oc4ccccc4)cc3)c3c(N)ncnc32)C1 [ibrutinib]
- %-inhibition at 1 µmol/L, SGK [1, 14]: -21%
- %-inhibition, NuaK1 [2, 14]: 7%
- %-inhibition at 1 µmol/L, LCK [3, 14]: 100%
- %-inhibition at 1 µmol/L, FGR [4, 14]: 99%
- %-inhibition at 1 µmol/L, PDGFRα [5, 14]: 94%
- %-inhibition at 1 µmol/L, TRKB [6, 14]: 26%
- %-inhibition at 1 µmol/L, DCAMKL2 [7, 14]: -9%
- %-inhibition at 1 µmol/L, TSSK2 [8, 14]: -4%
- %-inhibition, NEK6 [9, 14]: 0.77%
- %-inhibition at 1 µmol/L, PIM2 [10, 14]: -5%
- %-inhibition, MST4 [11, 14]: 1.46%
- %-inhibition, p70S6Kβ [12, 14]: 0.87%
- %-inhibition, MRCKβ [13, 14]: -7.55%

SMILES: C[C@@H](Oc1cc(-c2cnn(C3CCNCC3)c2)cnc1N)c1c(Cl)ccc(F)c1Cl [crizotinib]
- %-inhibition at 1 µmol/L, SGK [1, 15]: 1.46%
- %-inhibition, NuaK1 [2, 15]: 99%
- %-inhibition at 1 µmol/L, LCK [3, 15]: 98%
- %-inhibition at 1 µmol/L, FGR [4, 15]: 70%
- %-inhibition at 1 µmol/L, PDGFRα [5, 15]: 49%
- %-inhibition at 1 µmol/L, TRKB [6, 15]: 102%
- %-inhibition at 1 µmol/L, DCAMKL2 [7, 15]: 49%
- %-inhibition at 1 µmol/L, TSSK2 [8, 15]: 0.896%
- %-inhibition, NEK6 [9, 15]: -2.72%
- %-inhibition at 1 µmol/L, PIM2 [10, 15]: -5.28%
- %-inhibition, MST4 [11, 15]: 0.54%
- %-inhibition, p70S6Kβ [12, 15]: 6%
- %-inhibition, MRCKβ [13, 15]: -2%
